{
  "source": "patent US20120237614A1",
  "about": "“PEPTIDE ABLE TO DISRUPT THE PROTEIN COMPLEX BETWEEN THE HIS273 MUTADED P53 PROTEIN AND THE ONCOSUPPRESSIVE P73 PROTEIN IN TUMOR CELLS AND THERAPEUTIC USES THEREOF” (priority 2009, published 2012)",
  "key": {"[1]": {"tested_on": "MDA-MB-468 cells (His-273 p53 mutation)", "assay": "Transactivation test (pLUC-BAX, pLUC-p21) in Adriamycin treated MDA-MB-468 cells", "format": "cell-based, human", "conditions": "MDA-MB-468, 3 μM Adriamycin 24 hours post-transfection, luciferase reporter", "protocol": "MDA-MB-468 cells have been transfected using a mixture containing lipofectamine, pLUC-BAX plasmid, β-galactosidase expression vector, SIMP1 and SIMP control peptides. The cells, 24 hours post-transfection, have been treated with 3 μM Adriamycin.\nMDA-MB-468 cells have been transfected using a mixture containing lipofectamine, pLUC-BAX plasmid, pLUC-p21, β-galactosidase expression vector, SIMP1 peptides and SIMP1M and SIMP1KO derived mutant thereof. The cells, 24 hours post-transfection, have been treated with 3 μM Adriamicyn and then processed.\nSKBR3, HT-29, MDA-MB-468 cell lines have been transfected with Lipofectamine 2000 according to the supplier instructions (InVitrogen).\nCells (1.5×10^5) have been transiently transfected using SIMP peptides, expression plasmids and reporter constructs as internal controls for transfection efficiency. After the transfection, SKBR3, HT-29 and MDA-MB-468 have been incubated with 3 μM ADR over 24 hours. Cells have been washed with cold PBS and re-suspended in lysis buffer (Promega) and incubated for 10 min at room temp. Insoluble material has been centrifuged and luciferase activity has been determined using a commercial kit with a luminometer (Turner)."}, "[2]": {"tested_on": "tumour cell lines containing His-175 or His-273 p53 mutation", "assay": "Summary of activity by p53 mutation type", "format": "cell-based", "conditions": "FIG. 6 summary", "text": "SIMP1M: FQQSSTARSATW (SEQ ID NO:16) (MW: 1369, PI: 9.75) peptide is a mutated version of SIMP1 peptide wherein K138 residue has been replaced by Arginine.\nFIG. 6 that SIMP peptides and by-products thereof displace protein complexes involving mutated protein p53 and p73."}, "[3]": {"tested_on": "MDA-MB-468 cells", "assay": "Apoptotic tests (PARP and BAX expression, Western blot) after Adriamycin", "format": "cell-based, human", "conditions": "MDA-MB-468, 3 μM Adriamycin", "protocol": "(§1) (A) MDA-MB-468 (5×10^5) cells have been transfected using a lipofectamine containing mixture, βgal expression vector, which normalizes transfection efficiency, and SIMPI peptide (20 μM). Total cellular lysates (1 mg), have been immunoprecipitated with antibodies directed against p73 and immunoglobulins (IgG). Immunoprecipitates and an aliquot (50 μg) of total lysate after 12% acrylamide gel electrophoretic run have been transferred on nitrocellulose membrane and labelled with antibodies shown in the figure. (B) MDA-MB-468 cells, have been transfected using SIMP1 and SIMP5,6. peptides. Successively, cells have been washed and stimulated with 3 μM Adriamycin. Total obtained lysates (30 μg) have been assayed for the expression of PARP and BAX apoptotic proteins. Lysate has been normalized by assaying γ-tubulin expression. (C-D). Transactivation tests have been carried out by transient transfection of H1299 cells using a mixture containing lipofectamine, SIMP1, SIMP5,6 indicated plasmids (20 μM each) together with pLUC-BAX reporter vector. To each reaction mixture an equal amount of […] expression vector was added, in order to normalize the transfection efficiency.\n50 μg of solubilised proteins have been separated by electrophoresis on 10 or 15% SDS-polyacrylamide gel. Western blot analysis has been carried out using anti-p53 primary antibodies (DO1 Calbiochem), rabbit anti-PARP, rabbit polyclonal anti-Bax, anti-p21 and anti-tubulin monoclonal antibodies (Calbiochem). Goat anti-mouse and goat anti-rabbit horse peroxidase conjugated secondary antibodies (Amersham) have been used for the expression analyses. Immunolabelled lanes have been detected using chemiluminescence analysis (Pierce).\nTo this end cell viability and apoptotic tests (FIG. 1B, FIG. 4 B-C) on MDA-MB468 breast carcinoma have been carried out."}, "[4]": {"tested_on": "m-p53 His273 inhibition on p73 transcription activity", "assay": "Transactivation test with pLUC-BAX reporter in transiently transfected H1299 cells", "format": "cell-based, human", "conditions": "peptides 20 μM each", "protocol": "as §1, with “efficiency. […]” for “efficiency.”\nTo this end, we have analyzed the ability in blocking the His273 p53 induced inhibition on transcription activity. […]"}, "[5]": {"tested_on": "MDA-MB468 breast and HT29 colon carcinoma cell lines", "assay": "Cell viability / proliferation assays after peptide transfection", "format": "cell-based, human", "conditions": "peptide transfected cells", "protocol": "(A) In order to verify the SIMPI peptide specificity, independently from the cellular context, we tested SIMP1 peptides in some Adriamicyn treated colon carcinoma HT29 (His-273). cell lines. The cells have been transfected using a mixture containing lipofectamine, pLUC-BAX plasmid, β-galactosidase expression vector, SIMP1 and SIMP5M control peptides. 24 hours post-transfection, have been treated with 3 μM Adriamicyn. (B-C). Viability and inhibition assays have been carried out after transfection using SIMP1 and SIMP5M peptides in HT29 (colon cancer) and MDA-MB-468 (breast cancer) cell lines\nCell viability has been tested using Trypan Blue exclusion assays.\nWe observed a reduction of cell proliferation in MDA-MB468 breast and HT29 colon carcinoma cell lines."}},
  "note": "“Also recorded” adds a separate entry of the source.",
  "data": [
    {"sequence": "FQQSSTAKSATW (p73 SIMP (aa 131-142)) [SIMP1]", "values": [
      {"measurement": "Adriamycin chemosensitivity / p73 transcription response", "setting": "[1]", "value": "increases the Adriamycin sensitivity; also recorded: increase Adriamycin chemosensitivty; also recorded: increased p73 transcription response as an adriamycin response"},
      {"measurement": "specificity for p53 mutation type", "setting": "[2]", "value": "display specificity for His-273 mutation containing tumours"},
      {"measurement": "apoptotic response", "setting": "[3]", "value": "increase the apoptotic response to chemotherapeutic agents"},
      {"measurement": "apoptotic response", "setting": "[3]; listed as SIMPI", "value": "increases the apoptotic response"},
      {"measurement": "restoration of p73 transcription activity inhibited by m-p53 His273", "setting": "[4]", "value": "modify mutated p53/p73 protein complex restoring p73 oncosuppressive functions; also recorded: blocked the m-p53 His273 inhibition on p73 transcription activity"},
      {"measurement": "cell proliferation in vitro", "setting": "[5]", "value": "reduce the cell proliferation in vitro"}
    ]}
  ]
}
